Data set [1] deals with AV block. Briefly: Drug-induced AV block: intravenous Fingolimod and/or verapamil, without and with oral 14:0 lyso PG (ECG, PR intervals). The class given is in vivo, guinea pigs. Here is the method:
To test this hypothesis, guinea pigs were instrumented (subcutaneous ECG leads) and exposed to increasing intravenous doses of Fingolimod and/or verapamil, without and with an oral dose of 14:0 lyso PG. ECG signals were recorded continuously for 2 hours post-dose for the AV blockers Fingolimod and verapamil. PR intervals were measured following the infusion of Fingolimod. Measurements of PR were stopped when the P wave disconnected from the QRS complexes, indicating 3rd degree AV block.
Guinea pigs exposed to an intravenous infusion of Fingolimod alone transitioned to 1st degree AV block as of a dose of 15 μg/kg, which rapidly progressed to a Mobitz Type-1, 2nd-degree AV block at 20 μg/kg, and finally progressed to 3rd degree AV block as of a dose of 23 μg/kg.
The cohort of guinea pigs exposed to verapamil received an i.v. injection of 0.5 mg/kg, followed 60 minutes later by an intravenous infusion of Fingolimod. A 1st-degree AV block appeared at a dose of 7 μg/kg, changed to a Mobitz-Type-1 2nd degree AV block at 10 μg/kg, and transitioned to 3rd-degree dissociation between P waves and QRS complexes as of 45 μg/kg.
The third cohort of animals received an initial oral gavage of 1.0 mg/kg 14:0 lyso PG, followed 60 minutes later by an intravenous dose of 0.5 mg/kg verapamil. Sixty (60) minutes post-verapamil, Fingolimod was infused into the animals as described above. […] A Mobitz-Type-2 AV block appeared in 2 out of 6 animals with P-QRS dissociation observed at a dose of 51 μg/kg in those two animals, and at 300 μg/kg in the rest of the animals in the cohort.

In data set [2] the test system is QTc prolongation. Briefly: QTc prolongation by increasing oral doses of moxifloxacin, without or with concomitant 14:0 lyso PG.
The test system of data set [3] is K+ current. The conditions noted are these: cited from earlier work.
Where [4] appears, read: oral 1.0 mg/kg 14:0 lyso PG, then verapamil 0.5 mg/kg i.v., then Fingolimod infusion.
Where [5] appears, read: i.v. verapamil 0.5 mg/kg 60 minutes before Fingolimod infusion.
The mark [6] stands for this setting: intravenous infusion of Fingolimod alone.

Each structure is given as a SMILES string.

As for `CCCCCCCCCCCCCC(=O)OC[C@@H](O)COP(=O)(O)OCC(O)CO` (mixture of isomers) [14:0 lyso PG, 1-myristoyl-2-hydroxy-sn-glycero-3-phospho-(1′-rac-glycerol)], in data set [1] (setting [4]), the “Fingolimod dose at P-QRS dissociation, rest of the animals in the cohort” value turned out to be 0.3 mg/kg and the “animals in which a Mobitz-Type-2 AV block appeared” value is 2 out of 6. Besides, the “Fingolimod dose at P-QRS dissociation, the two animals with Mobitz-Type-2 AV block” value in data set [1] (oral 1.0 mg/kg 14:0 lyso PG, then verapamil 0.5 mg/kg i.v., then Fingolimod infusion, 2 out of 6 animals) was found to be 0.051 mg/kg. The Fingolimod dose at which 1st-degree AV block appeared in data set [1] (oral gavage 1.0 mg/kg 14:0 lyso PG, 60 min later i.v. verapamil 0.5 mg/kg, 60 min later Fingolimod infusion) came to 0.2 mg/kg. Also, the “shift in the QTc-dose response of Moxifloxacin” value in data set [2] (concomitant dose of 14:0 lyso PG) is “statistically significant right-shift”. Further, the “changes in QTc” value in data set [2] (concomitant dose of 14:0 lyso PG with moxifloxacin) is “no, or very little, changes in QTc”.

Turning to `CCCCc1oc2ccc(NS(C)(=O)=O)cc2c1C(=O)c1ccc(OCCCN(CCCC)CCCC)cc1` [Dronedarone], the “reduction of K+ current” value in data set [3] was 69%.

For `CCCCCCCCc1ccc(CCC(N)(CO)CO)cc1` [Fingolimod], in data set [1] (setting [5]), the “Fingolimod dose at 1st-degree AV block” value was 0.007 mg/kg; the “Fingolimod dose at 3rd-degree dissociation between P waves and QRS complexes” value is 0.045 mg/kg; the “Fingolimod dose at Mobitz-Type-1 2nd degree AV block” value worked out at 0.01 mg/kg. For the same compound, in data set [1] (setting [6]), the “Fingolimod dose at 1st degree AV block” value is 0.015 mg/kg; the “Fingolimod dose at 3rd degree AV block” value amounted to 0.023 mg/kg; the “Fingolimod dose at Mobitz Type-1, 2nd-degree AV block” value is 0.02 mg/kg.

(Values after patent publication US11643424B2, “Cardiopathy-reducing phosphodiester lipids” (Signpath Pharma, Inc., priority 2018, dated 2023).)
